In patent publication US20100190807A1, “CDKI Pathway inhibitors and uses thereof to regulate expression to TAU protein” (Senex Biotechnology, Inc., priority 2008, published 2010):

Target: T1, NFκB (p50 and p65 subunits) (Homo sapiens, UniProt P19838+Q04206)
T1 construct: endogenous in cells; control or TNFα-treated
Assay: TransAM NFκB p65 and p50 transcription factor assay (oligonucleotide binding)
Format: cell-based
Text: The left set of bars represents cells treated with carrier control, the middle set represents cells treated with SNX2, and the right set represents cells treated with a known inhibitor of NFκB binding (TPCK).
We also tested if these compounds could act as the inhibitors of NFκB, by measuring cellular levels of p50 or p65 subunits binding oligonucleotides containing NFκB consensus binding site, using ACTIVE MOTIF TransAM™ NFκB p65 Chemi and NFκB p50 Chemi Transcription Factor Assay Kits.

T1 sequence (P19838 1-433 limits assumed): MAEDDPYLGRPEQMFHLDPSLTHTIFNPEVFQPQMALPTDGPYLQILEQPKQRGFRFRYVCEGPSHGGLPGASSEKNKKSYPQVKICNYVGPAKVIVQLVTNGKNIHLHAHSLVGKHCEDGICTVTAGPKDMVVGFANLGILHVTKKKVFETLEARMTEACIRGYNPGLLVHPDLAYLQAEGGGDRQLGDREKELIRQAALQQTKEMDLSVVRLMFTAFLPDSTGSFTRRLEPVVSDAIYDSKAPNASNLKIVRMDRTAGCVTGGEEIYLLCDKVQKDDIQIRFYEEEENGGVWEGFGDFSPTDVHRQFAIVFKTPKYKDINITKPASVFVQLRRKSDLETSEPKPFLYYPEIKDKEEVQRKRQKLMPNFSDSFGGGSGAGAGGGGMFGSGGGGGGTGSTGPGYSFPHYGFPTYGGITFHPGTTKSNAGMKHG
T1 sequence (Q04206 whole entry): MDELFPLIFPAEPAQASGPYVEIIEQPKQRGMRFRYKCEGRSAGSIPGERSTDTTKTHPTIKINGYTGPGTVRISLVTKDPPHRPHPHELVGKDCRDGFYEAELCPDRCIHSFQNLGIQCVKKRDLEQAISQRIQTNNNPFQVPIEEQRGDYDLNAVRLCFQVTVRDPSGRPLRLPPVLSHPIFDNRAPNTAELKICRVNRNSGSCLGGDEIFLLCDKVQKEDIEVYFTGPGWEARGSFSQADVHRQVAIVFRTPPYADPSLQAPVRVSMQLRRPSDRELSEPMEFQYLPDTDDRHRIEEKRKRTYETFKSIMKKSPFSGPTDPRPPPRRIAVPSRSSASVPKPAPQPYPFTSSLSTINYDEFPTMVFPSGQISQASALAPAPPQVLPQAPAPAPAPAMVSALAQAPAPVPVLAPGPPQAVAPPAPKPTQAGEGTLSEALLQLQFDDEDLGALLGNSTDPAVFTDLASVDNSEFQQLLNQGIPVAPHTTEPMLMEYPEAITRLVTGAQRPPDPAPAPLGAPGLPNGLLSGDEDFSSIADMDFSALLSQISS

## Cc1ccc(S(=O)(=O)N[C@@H](Cc2ccccc2)C(=O)CCl)cc1 [TPCK]
TNFα-treated cells
  TNFα-induced NFκB activity: completely blocks
Control cells
  basal NFκB activity: completely blocks
